How the values were obtained:
naïve CD4+ T cells = assay type: cell-based, mouse
[1] = system: Human peripheral blood mononuclear cells (PBMC); assay: Cytokine production by human PBMC; assay type: cell-based
CD-1 mice = assay: Anti-CD3-induced cytokines in mouse plasma; assay type: in vivo; details: 20 mg/kg i.p., anti-CD3 1hr or 6hr later, plasma 2hr post-anti-CD3
Rag2−/− hosts = assay: CD4+ CD45RBhi T cell adoptive transfer model of colitis; assay type: in vivo
phosphorylated-PLCγ1 = assay: In vivo target engagement assay; set-up: species or system mouse; details: 40 mg/kg oral, 2hr or 6hr post-treatment, ex vivo anti-CD3/CD28 stimulation
[2] = system: HCT116 colorectal carcinoma cell line; assay: Inhibition of proliferation of HCT116 cells; assay type: cell-based; details: read-out: IC50 of inhibition of proliferation; HCT116, general cytotoxicity
polarized CD4+ T cells [3] = assay: P-selectin; assay type: cell-based, mouse
polarized CD4+ T cells [4] = assay: Transwell cell migration assay; assay type: cell-based, mouse; details: 3hr, cells cultured with 25 or 50nM PRN694
ITK = details: versus e.g. BMS-509744 and BMS-488516; Fig. 1B

Compound: C=CC(=O)N1CCC[C@@H]1Cn1c(NC(=O)c2ccc(C(F)F)s2)nc2cc(CN[C@@H](C)C(C)(C)C)ccc21 [PRN694]
- inhibition of IFN-γ production by TH1 cells (naïve CD4+ T cells; 25nM PRN694, TH1-polarizing conditions, 72hr, PMA/Ionomycin restimulation 5hr): > 50%
- expression levels of transcription factors (T-bet, GATA-3, RORγt) (naïve CD4+ T cells; TH1, TH2, TH17 polarization with inhibitor): decreased
- IL-2 production by in vitro polarized CD4+ T cells (naïve CD4+ T cells; all three lineages of T helper cells, 72hr): inhibited
- inhibition of IL-4 production by TH2 cells (naïve CD4+ T cells; any of the doses tested, TH2-polarizing conditions, 72hr): < 50%
- increase in IFN-γ, IL-6 and IL-2 induced by anti-CD3/CD28 ([1]; 20nM PRN694, 18hr): strongly inhibited
- increase in IFN-γ, IL-6 and IL-2 induced by anti-CD3/CD28 ([1]; 5.0μM PRN694, 18hr): completely blocked
- ability to inhibit IL-2 production on thapsigargin stimulation ([1]; PBMC stimulated with thapsigargin 10 μM, 18hr): strongly impaired
- increase in plasma IFN-γ, IL-6 and IL-2 induced by anti-CD3 (CD-1 mice): inhibited
- toxicity during long-term in vivo administration (Rag2−/− hosts; 7 week dosing time frame): no apparent toxicity
- CD4+ T cell proportions in intestinal epithelium and LP versus vehicle (Rag2−/− hosts; 7 weeks post-transfer): significantly less
- expression of integrin α4β7 and CCR6 on intestinal epithelial CD4+ T cells (Rag2−/− hosts; 7 weeks post-transfer): reduced
- histological analysis of the colonic epithelium (Rag2−/− hosts; 7 weeks post-transfer, H&E): reduced inflammation
- proportions of cells capable of producing IL-2 (Rag2−/− hosts; 7 weeks post-transfer, PMA/Ionomycin): reduced proportions
- reduced colon length (Rag2−/− hosts; 7 weeks post-transfer, oral dosing): prevented
- proportions of CD4+ T cells expressing Foxp3 (Rag2−/− hosts; all organs examined, 7 weeks post-transfer): significantly reduced
- behavioral indications of toxicity (Rag2−/− hosts; long-term in vivo administration): no behavioral indications of drug-mediated toxicity
- proportions of CD4+ T cells producing IFN-γ (Rag2−/− hosts; mesenteric LN, IEL and LP, 7 weeks post-transfer, PMA/Ionomycin): markedly reduced
- weight change (disease progression) (Rag2−/− hosts; oral 40 mg/kg once a day or 20 mg/kg twice a day, 7 weeks): no weight loss
- phosphorylation of PLCγ1 (phosphorylated-PLCγ1): completely blocked
- IC50 [2]: 10 µM
- P-selectin binding of TH1 and TH17 cells (polarized CD4+ T cells [3]; differentiated 72hr with 25 or 50nM PRN694): reduced P-selectin binding
- P-selectin binding of TH2 cells (polarized CD4+ T cells [3]; only visible in the higher dose of inhibitor (50nM)): only a modest reduction
- TH17 migration to CCL20 (polarized CD4+ T cells [4]; CCL20 100 ng/mL): reduced approximately two-fold
- TH1 migration to CXCL11 (polarized CD4+ T cells [4]; CXCL11 100 ng/mL): inhibited
- fold more potent in inhibiting ITK than previously-described ITK inhibitors (ITK): 63- to 320 fold

From article PMC4635571 (Journal of immunology (Baltimore, Md. : 1950), 2015)
